≈ marks a conversion by molar mass, not a printed value. Where a name gives a salt, the structure may show the parent alone.
Columns and labels:
[1] = Solubility of ocaperidone salts and free base in water; settings: for solubility in water (in words): crystalline salt, HPLC grade water pH=6, 25° C., 1 h and 24 h, compared with salts of examples 1, 3-10 and free base
Description: In particular, the solubilities of ocaperidone salts were measured as follows:
UV/visible spectrophotometer: Agilent 8453E
Volumetric flask (5 ml, 10 ml, 20 ml, 100 ml) Mechanical pipettes: Biohit (m1000, m200)
Magnetic stirrer: Heidolph MR3001K
A suspension of 100 mg of crystalline ocaperidone salt or ocaperidone free base in 1 ml HPLC grade pure water (pH=6) was prepared. The suspension was kept at fixed and controlled temperature (ex: 25° C.) under magnetic stirring for 24 hours. A sample was taken, filtered and the solubility of the ocaperidone salts or ocaperidone free base was measured after 1 h and 24 h. Results are given in g/100 ml.

[2] = Solubility of ocaperidone free base in acid solution; type: physicochemical; settings: acid solution at pH=1.3

solubility in water (in words) ([1]; listed as ocaperidone pyroglutamic salt) | times more soluble than the succinic acid addition salt ([1]; ocaperidone salt solubility study in water, ratio to succinic acid addition salt) [times] | solubility thermodynamic ([1]; 25 °C, pH 6, water, thermodynamic from solid) [µg/mL] | solubility in acid solution [2] [g/100 ml] | Structure (SMILES) | solubility in water (in words) [1]
unexpectedly high solubility | 31.2 |  |  | Cc1nc2c(C)cccn2c(=O)c1CCN1CCC(c2noc3cc(F)ccc23)CC1 [Example 2, Ocaperidone Pyroglutamic Acid Salt] | higher solubility in water than the other salts
 |  | 7 (≈ 16.6 µM) | 0.25 | Cc1nc2c(C)cccn2c(=O)c1CCN1CCC(c2noc3cc(F)ccc23)CC1 [ocaperidone, 3-[2-[4-(6-fluoro-1,2-benzisoxazol-3-yl)-1-piperidinyl]ethyl]-2,9-dimethyl-pyrido-[1,2-a]pyrimidin-4-one] | 
